Reference: PubChem BioAssay AID248 (DTP/NCI, 2004)
Values joined by “and” are separate entries in the source; they are usually repeats but may differ in a detail not shown here. Equal entries are not always repeated. Inconclusive results and toxic doses are left out.

System: L1210 leukemia ip in BDF1 mice, survival T/C
Assay: NCI In Vivo Anticancer Drug Screen. Data for tumor model L1210 Leukemia (intraperitoneal) in B6D2F1 (BDF1) mice
Settings: endpoint: mean survival time, higher = longer survival
Procedure, shortened: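 Value reflects the ratio of survival in compound-treated mice to survival in vehicle-treated controls, with both groups carrying the same transplanted tumor.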

[1] = dose: 100.0 mg/kg/injection, schedule: Q04DX003 (ip), vehicle: saline
[2] = dose: 100.0 mg/kg/injection, schedule: Q04DX003 (ip), vehicle: saline with Tween-80
[3] = dose: 200.0 mg/kg/injection, schedule: Q04DX003 (ip), vehicle: saline with Tween-80
[4] = dose: 400.0 mg/kg/injection, schedule: Q04DX003 (ip), vehicle: saline with Tween-80
[5] = dose: 100.0 mg/kg/injection, schedule: Q01DX001 (ip), vehicle: saline
[6] = dose: 200.0 mg/kg/injection, schedule: Q01DX001 (ip), vehicle: saline
[7] = dose: 400.0 mg/kg/injection, schedule: Q01DX001 (ip), vehicle: saline
[8] = dose: 100.0 mg/kg/injection, schedule: Q01DX001 (ip), vehicle: carboxymethylcellulose (CMC)
[9] = dose: 200.0 mg/kg/injection, schedule: Q01DX001 (ip), vehicle: carboxymethylcellulose (CMC)
[10] = dose: 400.0 mg/kg/injection, schedule: Q01DX001 (ip), vehicle: carboxymethylcellulose (CMC)
[11] = dose: 100.0 mg/kg/injection, schedule: Q04DX002 (ip), vehicle: saline
[12] = dose: 200.0 mg/kg/injection, schedule: Q04DX002 (ip), vehicle: saline

In the case of `CCOC(=O)C(N)Cc1ccc(OC)c(N(CCCl)CCCl)c1` (stereo unspecified), the T/C (dose: 0.21 mg/kg/injection, schedule: Q01DX009 (ip), vehicle: carboxymethylcellulose (CMC)) is reported as 112 % of control, the T/C (dose: 0.32 mg/kg/injection, schedule: Q01DX009 (ip), vehicle: carboxymethylcellulose (CMC)) is reported as 112 % of control and the T/C (dose: 0.48 mg/kg/injection, schedule: Q01DX009 (ip), vehicle: carboxymethylcellulose (CMC)) is reported as 122 % of control. The T/C (dose: 0.75 mg/kg/injection, schedule: Q01DX009 (ip), vehicle: carboxymethylcellulose (CMC)) was 112 % of control, the T/C (dose: 1.1 mg/kg/injection, schedule: Q01DX009 (ip), vehicle: carboxymethylcellulose (CMC)) was 154 % of control and the T/C (dose: 1.5 mg/kg/injection, schedule: Q01DX001 (ip), vehicle: carboxymethylcellulose (CMC)) was 115 % of control. For the same compound, the T/C (dose: 1.5 mg/kg/injection, schedule: Q01DX009 (ip), vehicle: carboxymethylcellulose (CMC)) was 155 % of control, the T/C (dose: 1.7 mg/kg/injection, schedule: Q01DX009 (ip), vehicle: carboxymethylcellulose (CMC)) was 160 % of control and the T/C (dose: 2.6 mg/kg/injection, schedule: Q01DX001 (ip), vehicle: carboxymethylcellulose (CMC)) was 119 % of control. The T/C (dose: 2.6 mg/kg/injection, schedule: Q01DX009 (ip), vehicle: carboxymethylcellulose (CMC)) was 160 % of control, the T/C (dose: 3.0 mg/kg/injection, schedule: Q01DX001 (ip), vehicle: carboxymethylcellulose (CMC)) was 117 % of control and the T/C (dose: 3.0 mg/kg/injection, schedule: Q01DX009 (ip), vehicle: carboxymethylcellulose (CMC)) was 121 % of control. The T/C (dose: 4.0 mg/kg/injection, schedule: Q01DX009 (ip), vehicle: carboxymethylcellulose (CMC)) was 120 % of control and the T/C (dose: 9.0 mg/kg/injection, schedule: Q01DX001 (ip), vehicle: carboxymethylcellulose (CMC)) was 164 % of control.
In the case of `CCOP(=O)(OCC)C1c2cc(Cl)ccc2-c2c(Cl)cc(Cl)cc21` (stereo unspecified), the T/C (dose: 15.0 mg/kg/injection, schedule: Q01DX001 (ip), vehicle: saline) is reported as 103 % of control, the T/C (dose: 30.0 mg/kg/injection, schedule: Q01DX001 (ip), vehicle: saline) is reported as 98 % of control and the T/C (dose: 60.0 mg/kg/injection, schedule: Q01DX001 (ip), vehicle: saline) is reported as 103 % of control.
`CSCCNC(=O)NS(=O)(=O)c1ccc(Cl)cc1` was tested, and the T/C [1] was 96 % of control, the T/C (dose: 200.0 mg/kg/injection, schedule: Q04DX003 (ip), vehicle: saline) was 97 % of control and the T/C (dose: 400.0 mg/kg/injection, schedule: Q04DX003 (ip), vehicle: saline) was 92 % of control.
`COC1(c2ccc([N+](=O)[O-])o2)OC1(C)C` (stereo unspecified) was tested, and the T/C (dose: 100.0 mg/kg/injection, schedule: Q01DX009 (ip), vehicle: saline with Tween-80) was 98 % of control, the T/C [2] was 113 % of control and the T/C (dose: 200.0 mg/kg/injection, schedule: Q01DX009 (ip), vehicle: saline with Tween-80) was 95 % of control. For the same compound, the T/C [3] was 109 % of control and the T/C [4] was 96 % of control.
With `O=C(N/N=C/c1cccc([N+](=O)[O-])c1)c1ccc(O)cc1` the T/C (dose: 100.0 mg/kg/injection, schedule: Q04DX002 (ip), vehicle: Klucel (hydroxypropylcellulose) (HPC)) was 102 % of control and the T/C (dose: 200.0 mg/kg/injection, schedule: Q04DX002 (ip), vehicle: Klucel (hydroxypropylcellulose) (HPC)) was 105 % of control.
With `Cc1cccc2c1C1c3ccccc3C(=O)CC1CC2=O` (stereo unspecified) the T/C (dose: 100.0 mg/kg/injection, schedule: Q04DX003 (ip), vehicle: Klucel (hydroxypropylcellulose) (HPC)) was 98 % of control, the T/C (dose: 200.0 mg/kg/injection, schedule: Q04DX003 (ip), vehicle: Klucel (hydroxypropylcellulose) (HPC)) was 97 % of control and the T/C (dose: 400.0 mg/kg/injection, schedule: Q04DX003 (ip), vehicle: Klucel (hydroxypropylcellulose) (HPC)) was 93 % of control.
With `CCCCCC(O)C(O)CC(O)C(O)CCCCCCCC(=O)O` (stereo unspecified) the T/C [5] was 89 % of control, the T/C [6] was 105 % of control and the T/C [7] was 96 % of control.
For `N#Cc1ccnc2ccccc12`, the T/C [8] was 97 % of control, the T/C [9] was 97 % of control and the T/C [10] was 98 % of control.
In the case of `COC1OC(CO)C(O)C(OS(C)(=O)=O)C1OS(C)(=O)=O` (stereo unspecified), the T/C [11] is reported as 104 % of control, the T/C [12] is reported as 104 % of control and the T/C (dose: 400.0 mg/kg/injection, schedule: Q04DX002 (ip), vehicle: saline) is reported as 93 % of control.
For `O=C(S)CN1C(=O)c2ccccc2C1=O`, the T/C [8] was 91 % of control, the T/C [9] was 93 % of control and the T/C [10] was 102 % of control.
With `COc1ccc(Br)cc1CCCO` the T/C [2] was 94 % of control, the T/C [3] was 92 % of control and the T/C [4] was 95 % of control.
For `Cc1ccc([P+](Cc2ccccc2)(c2ccccc2)c2cccc3ccccc23)cc1` (stereo unspecified), the T/C (dose: 15.0 mg/kg/injection, schedule: Q01DX001 (ip), vehicle: carboxymethylcellulose (CMC)) was 94 % of control and the T/C (dose: 30.0 mg/kg/injection, schedule: Q01DX001 (ip), vehicle: carboxymethylcellulose (CMC)) was 93 % of control.
In the case of `CC(C)(C)/C([O-])=N/[N+](C)(C)Cc1ccccc1`, the T/C [5] is reported as 97 % of control, the T/C [6] is reported as 98 % of control and the T/C [7] is reported as 98 % of control.
For `CCOC(=O)C1C(O)CC2COC(=O)C2C1c1ccc(OC(C)=O)cc1` (stereo unspecified), the T/C (dose: 100.0 mg/kg/injection, schedule: Q01DX001 (ip), vehicle: other) was 100 % of control and the T/C (dose: 200.0 mg/kg/injection, schedule: Q01DX001 (ip), vehicle: other) was 95 % of control.
With `O=C(CNC(=O)c1ccccc1)Nc1ccc([N+](=O)[O-])cc1` the T/C [5] was 100 % of control, the T/C [6] was 100 % of control and the T/C [7] was 94 % of control.
`O=C(O)C(=O)O.[Co+3].[NH-]C(Cc1ccccc1)C(=O)[O-].[NH-]CCN(CC[NH-])CC[NH-]` (stereo unspecified) was tested, and the T/C (dose: 50.0 mg/kg/injection, schedule: Q01DX001 (ip), vehicle: saline) was 110 % of control, the T/C [5] was 105 % of control and the T/C [6] was 104 % of control. The T/C [7] was 102 % of control.
`COC1OCC(Cl)C(Cl)C1O` (stereo unspecified) was tested, and the T/C (dose: 50.0 mg/kg/injection, schedule: Q04DX002 (ip), vehicle: saline) was 110 % of control, the T/C [11] was 100 % of control and the T/C [12] was 100 % of control.
With `O=C(Nc1cccc(C(F)(F)F)c1)N(C1CCCCC1)C1CCCCC1` the T/C (dose: 100.0 mg/kg/injection, schedule: Q01DX009 (ip), vehicle: Klucel (hydroxypropylcellulose) (HPC)) was 92 % of control, the T/C (dose: 200.0 mg/kg/injection, schedule: Q01DX009 (ip), vehicle: Klucel (hydroxypropylcellulose) (HPC)) was 87 % of control and the T/C (dose: 400.0 mg/kg/injection, schedule: Q01DX009 (ip), vehicle: Klucel (hydroxypropylcellulose) (HPC)) was 87 % of control.
For `CC1(N=C(N)CSSCC(N)=NC2(C)CCC(C(C)(C)C)CC2)CCC(C(C)(C)C)CC1` (stereo unspecified), the T/C (dose: 0.7 mg/kg/injection, schedule: Q01DX009 (ip), vehicle: other) was 93 % of control and 96 % of control, the T/C (dose: 1.0 mg/kg/injection, schedule: Q01DX001 (ip), vehicle: other) was 107 % of control and the T/C (dose: 1.0 mg/kg/injection, schedule: Q01DX009 (ip), vehicle: other) was 101 % of control and 103 % of control. The T/C (dose: 1.56 mg/kg/injection, schedule: Q01DX009 (ip), vehicle: other) was 97 % of control and 101 % of control, the T/C (dose: 2.0 mg/kg/injection, schedule: Q01DX001 (ip), vehicle: other) was 105 % of control and the T/C (dose: 2.35 mg/kg/injection, schedule: Q01DX009 (ip), vehicle: other) was 105 % of control and 90 % of control. The T/C (dose: 3.12 mg/kg/injection, schedule: Q01DX009 (ip), vehicle: carboxymethylcellulose (CMC)) was 112 % of control, the T/C (dose: 4.0 mg/kg/injection, schedule: Q01DX001 (ip), vehicle: other) was 111 % of control and the T/C (dose: 5.0 mg/kg/injection, schedule: Q04DX003 (ip), vehicle: other) was 95 % of control. For the same compound, the T/C (dose: 6.25 mg/kg/injection, schedule: Q01DX009 (ip), vehicle: carboxymethylcellulose (CMC)) was 102 % of control, the T/C (dose: 6.25 mg/kg/injection, schedule: Q01DX009 (ip), vehicle: other) was 98 % of control and the T/C (dose: 10.0 mg/kg/injection, schedule: Q04DX003 (ip), vehicle: other) was 105 % of control. The T/C (dose: 12.5 mg/kg/injection, schedule: Q01DX009 (ip), vehicle: other) was 102 % of control, the T/C (dose: 12.5 mg/kg/injection, schedule: Q04DX002 (ip), vehicle: other) was 104 % of control and 90 % of control and the T/C (dose: 25.0 mg/kg/injection, schedule: Q04DX002 (ip), vehicle: carboxymethylcellulose (CMC)) was 102 % of control and 112 % of control.
With `CCN(CC)CCOC(=O)c1ccccc1Nc1cccc(C)c1` the T/C (dose: 4.0 mg/kg/injection, schedule: Q01DX015 (ip), vehicle: saline) was 98 % of control, the T/C (dose: 8.0 mg/kg/injection, schedule: Q01DX015 (ip), vehicle: saline) was 102 % of control and the T/C (dose: 16.0 mg/kg/injection, schedule: Q01DX015 (ip), vehicle: saline) was 98 % of control. For the same compound, the T/C (dose: 32.0 mg/kg/injection, schedule: Q01DX015 (ip), vehicle: saline) was 106 % of control, the T/C (dose: 50.0 mg/kg/injection, schedule: Q04DX003 (ip), vehicle: saline) was 101 % of control and the T/C [1] was 103 % of control.
